# Experiments:
# [1] = system: normal human dermal fibroblasts (NHDF) cells; experiment: Fibroblast cytotoxicity (CellTiter-Glo); assay type: cell-based; details: 10 µM
# Procedure, shortened: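 Normal human dermal fibroblasts, 1 × 10^3 per well, exposed to compounds at 10 μM for 72 h at 37°C. Viability read as ATP-dependent CellTiter-Glo luminescence. Dose-response runs titrated compounds from 80 μM to 0.5 μM in duplicate.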
# [2] = system: Cryptococcus yeast (CHY3833 and CHY3836); experiment: Yeast replication secondary screen (OD600); assay type: cell-based, Cryptococcus neoformans serotype D (deneoformans); details: 10 μM, 12 h at 30°C
# Procedure: (ii) Yeast replication. CHY3833 and CHY3836 were each grown in YPD liquid overnight at 30°C to saturation and then resuspended in 0.5× YPD at an OD600 of 0.005. Strains were aliquoted into 384-well plates with inhibitors and grown for 12 h at 30°C at […] before OD600 readings were taken. Compounds that caused a >10% decrease in growth were considered yeast growth inhibitors.
Structure (SMILES),Cytotoxicity: Relative Cell Viability (% of Negative Control) [1],Yeast Inhibition: % Inhibition [2] [%]
Cc1ccc2nc(Nc3ccncc3)nc(-c3ccccc3)c2c1 [compound 3516311],72.7 % of Negative Control,20.1
Cc1ccc2cc(CCC#N)c(Cl)nc2c1 [compound 4736829],96.3 % of Negative Control,62.6
O=C(CSCc1ccccc1)N1CCC(c2ccsc2)CC1 [compound 71786985],101.7 % of Negative Control,11.0
Nc1nc(Cl)cc(Nc2cccc(C(F)(F)F)c2)n1 [compound 42589452],51.8 % of Negative Control,100.9
CC(C)(C)c1c[se]c(=S)s1 [compound 3797566],98.5 % of Negative Control,91.9
O=C(NCc1ccnc(-c2cccs2)c1)c1nc2ccccc2s1 [compound 91630328],93.3 % of Negative Control,3.0
Cc1ccc(Nc2ccc(N3CCN(C(=O)Cc4ccc(F)cc4)CC3)nn2)cc1 [compound 49671361],102.4 % of Negative Control,-10.5
Oc1ccc(C2(c3cccc(Cl)c3)CCCC2)cc1 [compound 767639],96.2 % of Negative Control,74.0
COc1ccc(Cc2nc3ccccc3[nH]2)cc1 [compound 763894],98.0 % of Negative Control,23.2
Cc1oc2cc(OCCN3CCN(c4ccccc4F)CC3)ccc2c(=O)c1-c1ccccc1 [compound 24280258],103.4 % of Negative Control,7.5
COC(=O)c1sc(S(=O)(=O)Nc2cccc(C(F)(F)F)c2)c(C(=O)OC)c1C [compound 1190482],90.9 % of Negative Control,2.5
Cc1cc(C)n(-c2nc(CCNC(=O)c3cc(C)oc3C)cs2)n1 [compound 71802096],103.6 % of Negative Control,42.7
Cc1ccc(N2C(=O)C=CC2=O)c([N+](=O)[O-])c1 [compound 2834581],4.3 % of Negative Control,101.2
O=C(NC1CCCC1)c1csc(Nc2ccccc2)n1 [compound 30860168],93.7 % of Negative Control,82.0
Cc1cc(-c2nnc(NC(=O)c3ccc(C(=O)c4ccccc4)cc3)o2)nn1C [compound 25283140],79.9 % of Negative Control,-15.6
CC(C)(C)NCC(O)COc1ccc(C23CC4CC(CC(C4)C2)C3)cc1 (stereo not shown) [compound 2769740],2.7 % of Negative Control,101.5
O=S1(=O)CCC(NC(=S)SCc2ccccc2)C1 (stereo not shown) [compound 2831154],24.3 % of Negative Control,48.2
COc1ccc(-c2noc(CSc3nc4ccsc4c(=O)n3C)n2)cc1 [compound 27373469],109.3 % of Negative Control,33.0
Cc1ccc(CN2C(=O)C=CC2=O)cc1 [compound 302279],3.1 % of Negative Control,101.5
O=C(c1cc2ccccc2s1)N1CCC(c2ccsc2)CC1 [compound 91624614],96.6 % of Negative Control,-0.5
CCCCCCCNS(=O)(=O)c1ccc(OCC)cc1 [compound 4102712],43.9 % of Negative Control,46.8
CCC(OCC(O)CN1CCC(Cc2ccccc2)CC1)c1ccccc1 (stereo not shown) [compound 4471873],78.8 % of Negative Control,82.2

Structure (SMILES),Cytotoxicity: Relative Cell Viability (% of Negative Control) [1],Yeast Inhibition: % Inhibition [2] [%]
O=c1/c(=C/c2ccc(F)cc2F)sc2nc3ccccc3n12 [compound 2354424],81.4 % of Negative Control,88.9
O=C1CC(c2cccs2)CC(=O)N1Cc1csc(-c2ccccc2)n1 [compound 71801965],95.9 % of Negative Control,3.9
CN(C)S(=O)(=O)N1CCN(CC(O)COc2ccc3cc(Br)ccc3c2)CC1 (stereo not shown) [compound 2981975],88.7 % of Negative Control,70.4
Cc1ccccc1OCCn1cnc2ccccc21 [compound 749608],96.0 % of Negative Control,75.5
OC(COc1ccc(C23CC4CC(CC(C4)C2)C3)cc1)C[N+]1(Cc2ccccc2)CCOCC1 (stereo not shown) [compound 16456368],2.8 % of Negative Control,101.6
NC(=O)c1ccsc1NC(=O)c1ccc(Cl)cc1Cl [compound 7167022],83.5 % of Negative Control,52.4
Cc1nc(NC(=O)CCl)sc1C(=O)OCC(C)C [compound 2139195],6.3 % of Negative Control,99.1
CCOC(=O)c1ccc(NC(=O)CC2Sc3ncnn3C2=O)cc1 (stereo not shown) [compound 2954695],99.4 % of Negative Control,101.7
O=[N+]([O-])CC(SCCO)c1ccc(O)cc1 (stereo not shown) [compound 4737365],25.2 % of Negative Control,99.2
CCn1c(CSc2ccccc2)nc2ccccc21 [compound 2992099],99.2 % of Negative Control,59.0
Clc1ccc2nc(SCCc3ccccc3)[nH]c2c1 [compound 955598],34.2 % of Negative Control,98.2
c1ccc(Cn2nnc3c(Sc4ncco4)ncnc32)cc1 [compound 7471335],4.1 % of Negative Control,101.6
c1nc(N2CCCCCC2)c2ccsc2n1 [compound 2238990],79.6 % of Negative Control,57.0
Nc1c(-c2ccccc2)sc2nc(-c3ccccc3)cc[n+]12 [compound 4458495],52.5 % of Negative Control,87.8
COc1ccc(-c2noc(-c3cc(-c4cc(C)ccc4C)n[nH]3)n2)cc1OC [compound 27375613],94.0 % of Negative Control,9.4
COc1ccc(SCCCC(=O)Nc2ncnc3sccc23)cc1 [compound 18585630],104.7 % of Negative Control,15.2
N#CSC1C=CS(=O)(=O)C1 (stereo not shown) [compound 99741],40.8 % of Negative Control,49.2
Cc1ccccc1N=c1scc(-c2ccc(F)cc2)n1CCO [compound 16955786],85.9 % of Negative Control,21.9
O=C(Nc1ccc2sccc2c1)c1ccc([N+](=O)[O-])s1 [compound 3629287],19.4 % of Negative Control,97.9
O=C1NC(=S)S/C1=C\c1ccccc1F [compound 1204290],92.9 % of Negative Control,71.4
Clc1ccc2nc(Nc3ccncc3)nc(-c3ccccc3)c2c1 [compound 4714160],90.5 % of Negative Control,14.9
O=C(Nc1ccc2[nH]c3c(c2c1)CCCC3)c1ccco1 [compound 852322],77.3 % of Negative Control,65.7

# — publication PMC8406298, “Discovery of Fungus-Specific Targets and Inhibitors Using Chemical Phenotyping of Pathogenic Spore Germination” (mBio, 2021)
